These results are taken from patent publication US20200131227A1, “POLYPEPTIDE WITH TUMOUR BINDING ACTIVITY” (RUPRECHT-KARLS-UNIVERSITÄT HEIDELBERG, priority 2017, published 2020).

As usually defined, the Kd is the free concentration of one partner at which half of the binding sites on the other are occupied at equilibrium, for simple one-to-one binding. A high value points to a looser complex.

For one data set, the system named is tumor-free lymph nodes. Kind of data set: Histochemical peptide staining of carcinoma-free lymph nodes. More on the design: species or system human. The protocol: (§1) Staining with the biotinylated PEG(12)-SFITGv6 peptide was performed on acetone-fixed cryosections (5 μm) of tumor tissues after blocking of unspecific binding using the Avidin/Biotin Blocking Kit (SP-2001, Vector Laboratories). A stock solution of the lyophilized peptide was prepared by dilution in 5% aqueous DMSO. Slices were incubated overnight at 4° C. with 10^-5 M peptide concentration in antibody diluent (DAKO). Detection of bound peptide was carried out with the Vectastain Elite ABC Kit (PK-6100, Vector Laboratories) according to manufacturer's protocol. Peptide specificity was ensured by a scrambled (GRD) PEG(12)-SFITGv6 derivate, the somatostatin receptor ligand DOTATOC and negative controls (without peptide or primary antibody) Staining results were assessed by bright field microscopy (BX50) with the SC30 camera and the cell Sense software (all Olympus).

The next data set addresses ITGαvβ3 (Homo sapiens, UniProt P05106+P06756). As to the kind of experiment: Surface plasmon resonance assay (SPR), ITGαvβ3. The data set is classed as binding. The protocol: (§2) Assessment of the binding affinity was performed on a BiaCore X100 (GE Healthcare). To avoid denaturation of the heterodimer during amide activation ITGαvβ6 and ITGαvβ3, respectively, were used as analytes and SFITGv6 was immobilized at its N-terminus on a C1 sensor Chip (BR-1005-35, GE Healthcare) using a manual amine coupling protocol. Briefly, after activation of the sensor chip surface with a solution of EDC 0.4 M/NHS 0.1 M for 5 min a 100 μM peptide dissolved in HBS-EP running buffer (0.1 M HEPES, 30 mM EDTA, 1.5 M NaCl, 0.5% surfactant P20, pH 7.2) was immobilized with a contact time of 30 sec until a loading level of 18 response units (RU) was obtained. […] The SPR-sensogram data were evaluated with the BiaCore evaluation software. The dissociation constant (KD) was determined by a 1:1 Langmuir model fit of the SPR-sensograms.
as §2, with “SFLAP3” for “peptide”, “to obtain” for “until”, “12” for “18”, “(RU).” for “(RU) was obtained.”, “SPR sensogram” for “SPR-sensogram”, “SPR sensograms.” for “SPR-sensograms.”
In general terms: In SPR one partner is held on a chip, and binding of the other changes the refractive index at the surface.

The test system of data set [1] is brain metastases derived from breast cancer and NSCLC. As to the kind of experiment: Histochemical peptide staining of brain metastases. More on the design: species or system human. The procedure: as §1
A further data set has as its system ovarian cancer. As to the kind of experiment: Scintigraphy of ovarian cancer patients. The format is in vivo, human. The following applies: 1 day after 6 GBq and 7.4 GBq. The protocol:
(§3) PET/CT scans of tumor patients and body scintigraphy were performed as described in Example 1.

The subject of another data set is Capan-2 cells. As to the kind of experiment: In vitro binding, internalization and efflux on Capan-2 cells. The format is cell-based, human. The procedure:
For in vitro binding Studies, 4*10^5-6*10^5 cells were seeded in 6 well plates and cultivated for 24 to 48 hours. At the start of the experiment the medium was replaced with 1 ml serum free medium with a definite amount of radioactive labeled peptide per well. For normal binding assays the cells were incubated for 60 min at 37° C. and afterwards washed 3 times with PBS (pH 7.4). Cells were lysed with 2 times 0.5 ml of a 0.3 M NaOH +0.2% SDS lysis-buffer. Competition assays were performed with ^125I-labeled and unlabelled (10^−6 to 10^−11M) peptide and incubated at the same time for 60 min.
Cells were incubated for 10 to 240 min with ^177Lu-labelled peptide in internalization assays. After the washing steps, the cells were incubated with 1 ml glycine-HCl (1 M, pH 2.2) buffer for 10 min to remove surface bound peptide. Prior to the lyses the cells were washed again. Values are given as percentage of applied dose per 10^6 cells.
The efflux was tested with ^177Lu-labeled peptides. After 60 min incubation the radioactive medium was removed and 1 ml fresh serum-free medium was added. After additional incubation of 60, 120 or 240 min, cell bound activity was measured.

In the next data set the test system is HNO399 cells. As to the kind of experiment: In vitro binding on HNO399 cells. The format is cell-based, human. As to conditions: Example 2, 10 min to 480 min (FIG. 16). The procedure: For the assessment of the peptide binding capacity in vitro, 2.5-4×10^5 cells were seeded into 6-well plates and cultivated for 48 h. ^125I-labeled peptide resuspended in 1 mL serum-free medium was added and incubated for either 10 min or 60 min with or without different concentrations of unlabeled peptide (10^−4-10^−11 M). Afterwards, cell monolayers were washed three times with 1 mL phosphate-buffered saline (pH 7.4) to remove unbound peptide and the cells were harvested with 1.4 mL lysis buffer (0.3 M NaOH). […] For the efflux experiments the cells were incubated with ^177Lu-DOTA-labeled peptides for 60 min. Thereafter, radioactive medium was replaced by non-radioactive medium and cell monolayers were incubated for additional 60, 120, and 240 min and afterwards lysed as described earlier. […] Unspecifically bound peptide was removed from the surface by incubation with 1 M glycine-HCl solution (pH 2.2) for 10 min. The monolayer cell was rinsed with PBS and cells were lysed as described before. Radioactivity was determined in a y-counter and calculated as percentage of the applied dose per 1×10^6 cells. Experiments were performed three times, and three repetitions per independent experiment were acquired.

The subject of data set [2] is metastasized pancreatic cancer. As to the kind of experiment: PET/CT and scintigraphy of pancreatic cancer patient. The following applies: 1 day after 6.5 GBq. The format is in vivo, human. The protocol: as §3

Where a SMILES comes first, the peptide text is derived from it. Bridges are numbered along the chain shown (N, C = ends). The star is where a group is joined. DOTA = O=C(O)CN1CCN(CC(=O)O)CCN(CC(=O)*)CCN(CC(=O)O)CC1

ITGαvβ3, sequence (P06756 31-992 limits assumed): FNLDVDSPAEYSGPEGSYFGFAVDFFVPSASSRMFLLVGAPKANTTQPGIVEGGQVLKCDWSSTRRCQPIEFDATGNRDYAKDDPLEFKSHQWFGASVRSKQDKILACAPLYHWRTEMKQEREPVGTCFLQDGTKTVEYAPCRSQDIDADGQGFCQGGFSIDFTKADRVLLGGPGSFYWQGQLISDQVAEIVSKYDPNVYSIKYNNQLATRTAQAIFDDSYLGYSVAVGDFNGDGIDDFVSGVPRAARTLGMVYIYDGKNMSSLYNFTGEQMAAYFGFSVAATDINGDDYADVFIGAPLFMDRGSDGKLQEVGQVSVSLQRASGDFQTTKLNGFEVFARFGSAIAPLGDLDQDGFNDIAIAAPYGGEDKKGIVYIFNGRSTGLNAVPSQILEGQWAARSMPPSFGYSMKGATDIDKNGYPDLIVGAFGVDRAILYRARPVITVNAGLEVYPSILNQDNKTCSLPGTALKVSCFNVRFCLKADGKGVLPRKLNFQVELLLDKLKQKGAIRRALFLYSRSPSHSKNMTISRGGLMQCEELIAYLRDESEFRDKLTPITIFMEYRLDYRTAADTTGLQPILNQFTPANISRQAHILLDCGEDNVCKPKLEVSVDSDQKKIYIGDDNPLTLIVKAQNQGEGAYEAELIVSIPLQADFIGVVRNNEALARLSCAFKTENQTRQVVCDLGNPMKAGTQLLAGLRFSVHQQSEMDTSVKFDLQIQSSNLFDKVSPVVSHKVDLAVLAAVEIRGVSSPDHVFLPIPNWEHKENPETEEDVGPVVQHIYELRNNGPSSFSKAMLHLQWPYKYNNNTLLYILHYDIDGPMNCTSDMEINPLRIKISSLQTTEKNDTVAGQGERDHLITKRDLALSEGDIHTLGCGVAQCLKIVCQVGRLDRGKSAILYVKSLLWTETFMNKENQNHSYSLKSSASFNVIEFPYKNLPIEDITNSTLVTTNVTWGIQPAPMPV
ITGαvβ3, sequence (P05106 27-718 limits assumed): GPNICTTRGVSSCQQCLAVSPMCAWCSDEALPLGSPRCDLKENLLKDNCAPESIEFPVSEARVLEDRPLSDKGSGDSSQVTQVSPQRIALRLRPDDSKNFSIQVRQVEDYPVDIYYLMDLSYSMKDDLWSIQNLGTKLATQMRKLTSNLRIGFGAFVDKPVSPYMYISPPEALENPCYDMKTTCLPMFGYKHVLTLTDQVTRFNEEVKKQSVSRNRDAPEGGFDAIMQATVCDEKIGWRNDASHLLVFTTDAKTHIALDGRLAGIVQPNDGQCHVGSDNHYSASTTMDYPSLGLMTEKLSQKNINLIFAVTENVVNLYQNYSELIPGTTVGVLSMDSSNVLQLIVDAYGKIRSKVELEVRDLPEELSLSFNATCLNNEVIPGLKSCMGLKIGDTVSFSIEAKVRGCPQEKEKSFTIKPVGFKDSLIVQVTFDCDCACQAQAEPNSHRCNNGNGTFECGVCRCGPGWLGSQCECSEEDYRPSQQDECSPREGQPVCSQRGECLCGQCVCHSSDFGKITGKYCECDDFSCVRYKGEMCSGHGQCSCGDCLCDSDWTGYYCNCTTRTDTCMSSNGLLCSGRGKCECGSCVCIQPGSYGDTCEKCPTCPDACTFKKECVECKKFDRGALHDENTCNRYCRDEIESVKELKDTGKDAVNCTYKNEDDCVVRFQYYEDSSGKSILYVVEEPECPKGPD

As to `CSCC[C@@H]1NC(=O)[C@H](CC(C)C)NC(=O)[C@H](CC(=O)O)NC(=O)CNC(=O)[C@H](CCCNC(=N)N)NC(=O)[C@H](Cc2ccccc2)NC(=O)[C@H]([C@@H](C)O)NC(=O)[C@@H](NC(=O)[C@H](CCCNC(=N)N)NC(=O)CN)CSSC[C@@H](C(=O)N[C@@H](Cc2ccc(O)cc2)C(=O)N2CCC[C@H]2C(=O)N[C@@H](CC(=O)O)C(=O)O)NC(=O)[C@H](CC(C)C)NC(=O)[C@H](CCC(N)=O)NC1=O` [SFITGv6, NH2-G-R-C1-T-F-R-G-D-L-M-Q-L-C1-Y-P-D-COOH] (H-GRCTFRGDLMQLCYPD-OH; disulfide 3-13), the “histochemical peptide staining result” value with tumor-free lymph nodes is reported as “did not show any SFITGv6-specificy”; in data set [1] (breast cancer BM (NCH640k)) it was “moderate but distinct tumor cell staining”; in data set [1] (lung BM (NCH2407)), “very strong tumor-specific staining pattern”. For the same molecule, at ITGαvβ3 (SPR), the “lower affinity for ITGαvβ3 than for ITGαvβ6” value was “ten-fold lower affinity”. The molecule further yielded a Kd at ITGαvβ3 (peptide immobilized, integrin as analyte, 1:1 Langmuir fit) of 185 ± 0.8 nM.

Consider `CC(C)C[C@@H]1NC(=O)[C@H](CC(=O)O)NC(=O)CNC(=O)[C@H](CCCNC(=N)N)NC(=O)CNC(=O)[C@H]([C@@H](C)O)NC(=O)[C@@H](NC(=O)[C@H](CCCNC(=N)N)NC(=O)CNC(=O)CN2CCN(CC(=O)O)CCN(CC(=O)O)CCN(CC(=O)O)CC2)CSSC[C@@H](C(=O)N[C@@H](Cc2ccc(O)cc2)C(=O)N2CCC[C@H]2C(=O)N[C@@H](CC(=O)O)C(N)=O)NC(=O)[C@H](CC(C)C)NC(=O)[C@H](CCCNC(=N)N)NC(=O)CNC1=O` [^177Lu-DOTA-SFLAP3, metal not drawn] ({DOTA}-GRCTGRGDLGRLCYPD-NH2; disulfide 3-13; N-terminus and C-terminus assumed), for which the results for the scintigraphic accumulation result (in the data set on ovarian cancer; in data set [2]) were “moderate to good accumulation in the metastases” and “accumulation in the metastatic sites”, respectively. The “cell binding of ^177Lu-DOTA-labeled peptide” value in the data set on Capan-2 cells (after 60 min) was 9.5%. The “internalization rate in comparison of the three peptides” value in the data set on Capan-2 cells (after 4 hours) is “highest internalization rate”. In the data set on Capan-2 cells (during 4 hours following 60 min exposure), the “efflux (released into the culture medium)” value came out at 50%. In addition, the “maximum binding capacity of ^177Lu-DOTA-labeled peptide (kinetics)” value in the data set with HNO399 cells is recorded as 4.31%.
